Measured values reported in PubChem BioAssay (NCI).
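Where inhibition never reached the appropriate level, the endpoint shown equals the highest concentration tested. Otherwise, values were interpolated linearly from a five-concentration, 48-hour dose response in 96-well plates. Here, GI50 denotes the concentration required for 50% inhibition of growth. The concentration for full growth arrest is given as TGI.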

What was measured:
Assay in all cases: NCI anticancer screen, dose series, 48 h
[1] = system: MALME-3M melanoma
[2] = system: A498 renal
[3] = system: OVCAR-8 ovarian
[4] = system: SK-OV-3 ovarian
[5] = system: COLO 205 colon
[6] = system: SK-MEL-28 melanoma
[7] = system: SF-268 CNS
[8] = system: SN12C renal
[9] = system: NCI/ADR-RES ovarian
[10] = system: UACC-62 melanoma

Row | Compound | TGI [1] | TGI [2] | TGI [3] | TGI [4] | TGI [5] | TGI [6] | TGI [7] | TGI [8] | TGI [9] | TGI [10] | GI50 [1] | GI50 [2] | GI50 [3] | GI50 [10] | GI50 [5] | GI50 [6] | GI50 [7] | GI50 [8] | GI50 [9]
1 | O=C1c2cc(I)ccc2N2CCN=C2N1Cc1ccccc1 | > 100 µM | 94.1 µM | > 100 µM | > 100 µM | > 100 µM | > 100 µM | > 100 µM | > 100 µM | > 100 µM | – | – | – | – | – | – | – | – | – | –
2 | O=c1cc(-c2ccccc2)[nH]c2ncccc12 | > 100 µM | > 100 µM | 4.01 µM | 1.89 µM | – | > 100 µM | > 100 µM | – | 0.414 µM | – | – | – | – | – | – | – | – | – | –
3 | CN1CCN(C(=O)CCC(=O)Nc2cc3c(c4ccccc24)-c2ccc4ccccc4c2C3)CC1 | 3.71 µM | 27.6 µM | 4.38 µM | 3.09 µM | 3 µM | 3.26 µM | 3.57 µM | 3.64 µM | 4.55 µM | 3.32 µM | – | – | – | – | – | – | – | – | –
4 | Cc1cc(=O)oc2cc(OCCCOc3ccc4c(C)cc(=O)oc4c3)ccc12 | > 100 µM | > 100 µM | > 100 µM | – | > 100 µM | > 100 µM | > 100 µM | > 100 µM | – | > 100 µM | – | – | – | – | – | – | – | – | –
5 | COC(=O)[C@H](CC(C)C)NC(=O)[C@H](Cc1ccccc1)N1CC2C=CC1C2 (some centres not stated) | > 100 µM | > 100 µM | > 100 µM | > 100 µM | > 100 µM | > 100 µM | > 100 µM | > 100 µM | – | > 100 µM | – | – | – | – | – | – | – | – | –
6 | O=C1C=C(Nc2ccccc2C(=O)CC(=O)C(=O)Nc2ccc(Cl)cc2)c2ccccc2C1=O | 24.1 µM | > 100 µM | 37.4 µM | 76.1 µM | 34.5 µM | 35 µM | 57.5 µM | 26 µM | – | 29.8 µM | – | – | – | – | – | – | – | – | –
7 | CC1=NN(C(=O)Cc2ccccc2)C(=O)/C1=C\c1ccc([N+](=O)[O-])cc1 | > 100 µM | > 100 µM | > 100 µM | > 100 µM | > 100 µM | > 100 µM | > 100 µM | > 100 µM | – | > 100 µM | – | – | – | – | – | – | – | – | –
8 | CC(C)(C)N/N=C(\C(=O)Nc1cccc(Cl)c1)C1C(=O)Nc2ccccc2S1=O (configuration not stated) | 47.4 µM | – | > 100 µM | > 100 µM | > 100 µM | > 100 µM | > 100 µM | > 100 µM | – | > 100 µM | – | – | – | – | – | – | – | – | –
9 | COc1cccc2c1C(=O)c1c(O)c3c(c(O)c1C2=O)C[C@@](O)(C(C)=O)CC3S(=O)(=O)O (some centres not stated) | > 100 µM | > 100 µM | > 100 µM | > 100 µM | > 100 µM | > 100 µM | > 100 µM | > 100 µM | – | > 100 µM | – | – | – | – | – | – | – | – | –
10 | COc1ccc2c(c1)Oc1cc(O)ccc1[C@H]2c1ccccc1C(=O)NC(C)c1ccccc1 (some centres not stated) | 46.2 µM | 30.8 µM | 36 µM | 39.3 µM | 31.3 µM | 34.7 µM | 45.8 µM | 31.6 µM | – | 24.8 µM | – | – | – | – | – | – | – | – | –
11 | O=C(Cc1nc2ccc(C(=O)c3ccccc3)cc2[nH]c1=O)C(=O)Nc1nc2ccccc2[nH]1 | > 100 µM | – | > 100 µM | > 100 µM | > 100 µM | > 100 µM | > 100 µM | > 100 µM | – | > 100 µM | – | – | – | – | – | – | – | – | –
12 | CN(C)Cc1c(O)ccc2c1c1c(n2C)C(=O)c2ccccc2C1=O | 15.5 µM | 14.7 µM | > 100 µM | > 100 µM | 40 µM | 20 µM | > 100 µM | > 100 µM | 18.3 µM | 18.2 µM | – | – | – | – | – | – | – | – | –
13 | CCC12CCCN(Cc3ccccc3)C1c1c(n(C)c3ccccc13)C(CO)C2 (configuration not stated) | 84.6 µM | – | 186 µM | 194 µM | 75.2 µM | 150 µM | > 257 µM | 81.2 µM | – | 115 µM | – | – | – | – | – | – | – | – | –
14 | O=c1[nH]c(=O)c2ncn(-c3ccc([N+](=O)[O-])cn3)c2[nH]1 | – | > 100 µM | > 100 µM | > 100 µM | > 100 µM | > 100 µM | > 100 µM | > 100 µM | > 100 µM | > 100 µM | – | – | – | – | – | – | – | – | –
15 | CCc1cc(C)cc2[n+]1CC=C2 | 67.5 µM | – | > 100 µM | – | 81.5 µM | > 100 µM | > 100 µM | 78.6 µM | – | – | – | – | – | – | – | – | – | – | –
16 | COc1cccc2c1NC(=O)Cc1c-2[nH]c2ccccc12 | > 100 µM | > 100 µM | – | > 100 µM | > 100 µM | > 100 µM | > 100 µM | – | > 100 µM | > 100 µM | – | – | – | – | – | – | – | – | –
17 | Nc1nc(NCCOCP(=O)(O)O)c([N+](=O)[O-])c(=O)[nH]1 | > 100 µM | – | > 100 µM | > 100 µM | > 100 µM | > 100 µM | > 100 µM | > 100 µM | – | > 100 µM | – | – | – | – | – | – | – | – | –
18 | COc1ccc2c(c1)N(Cc1ccc(Cl)cc1)CCC2N1CCCC1=O (configuration not stated) | 27.2 µM | 49.7 µM | 57.3 µM | – | 20 µM | 45.6 µM | > 100 µM | 89.1 µM | 49.6 µM | 14.9 µM | 3.99 µM | 3.22 µM | 4.6 µM | 3.25 µM | 5.33 µM | 8.28 µM | 5.41 µM | 4.68 µM | 3.72 µM
